Test results as given in patent publication US20190048016A1, “SUBSTITUTED BRIDGED UREA ANALOGS AS SIRTUIN MODULATORS” (GlaxoSmithKline Intellectual Property(No.2)Limited, priority 2014, published 2019).

Molecular target: T1, SIRT1 (Homo sapiens, UniProt Q96EB6)
T1 sequence (Q96EB6 1-747): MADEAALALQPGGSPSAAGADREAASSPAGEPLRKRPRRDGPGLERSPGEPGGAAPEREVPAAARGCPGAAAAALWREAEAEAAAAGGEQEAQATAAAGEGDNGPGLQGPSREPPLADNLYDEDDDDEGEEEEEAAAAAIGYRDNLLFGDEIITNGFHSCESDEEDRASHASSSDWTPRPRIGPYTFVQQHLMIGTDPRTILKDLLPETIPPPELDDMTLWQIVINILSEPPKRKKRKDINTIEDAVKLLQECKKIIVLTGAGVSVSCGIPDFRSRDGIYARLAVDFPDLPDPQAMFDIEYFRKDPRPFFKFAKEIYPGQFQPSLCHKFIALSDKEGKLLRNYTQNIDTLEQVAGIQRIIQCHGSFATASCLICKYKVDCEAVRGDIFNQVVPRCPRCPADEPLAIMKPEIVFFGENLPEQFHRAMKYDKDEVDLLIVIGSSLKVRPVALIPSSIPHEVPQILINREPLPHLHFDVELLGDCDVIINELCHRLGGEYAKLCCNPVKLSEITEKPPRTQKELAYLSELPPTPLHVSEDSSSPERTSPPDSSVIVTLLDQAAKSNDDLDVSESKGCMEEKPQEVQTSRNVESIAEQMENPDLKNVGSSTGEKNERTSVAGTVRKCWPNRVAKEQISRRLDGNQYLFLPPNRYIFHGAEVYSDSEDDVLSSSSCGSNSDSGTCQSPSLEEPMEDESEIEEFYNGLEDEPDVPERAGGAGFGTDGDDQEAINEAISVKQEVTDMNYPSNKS
Assay: Trp mass spectrometry assay of SIRT1 activation (deacetylation of Ac-R-H-K-K(Ac)-W-NH2 peptide, OAADPR formation)
Assay type: biochemical
Details: Trp peptide 0.5 μM, 120 μM βNAD+, 10 nM SIRT1, 25 min, 25° C.; for Emax: 25 min, read-out: TRP MAX RESP (percent maximum fold activation relative to control = 100%)
Text: Mass spectrometry based assays were used to identify modulators of SIRT1 activity. The TAMRA based assay utilized a peptide having 20 amino acid residues as follows: Ac-EE-K(biotin)-[…](Ac)NleSTEG-K(5TMR)-EE-NH2 (SEQ ID NO: 1), wherein K(Ac) is an acetylated lysine residue and Nle is a norleucine. The peptide was labeled with the fluorophore 5TMR (excitation 540 nm/emission 580 nm) at the C-terminus. The sequence of the peptide substrate was based on p53 with several modifications. In addition, the methionine residue naturally present in the sequence was replaced with the norleucine because the methionine may be susceptible to oxidation during synthesis and purification. The Trp based assay utilized a peptide having an amino acid residues as follows: Ac-R-H-K-K(Ac)-W-NH2 (SEQ ID NO: 2).
The Trp mass spectrometry assay was conducted as follows. 0.5 μM peptide substrate and 120 μM βNAD^+ were incubated with 10 nM SIRT1 for 25 minutes at 25° C. in a reaction buffer (50 mM HEPES pH 7.5, […], 1 mM DTT, 0.05% BSA). The SIRT1 protein was obtained by cloning the SirT1 gene into a T7-promoter containing vector, which was then expressed in BL21(DE3) bacterial cells and purified as described in further detail below. Test compound was added at varying concentrations to this reaction mixture and the resulting reactions were monitored. After the 25 minute incubation with SIRT1, 10 μL of 10% formic acid was added to stop the reaction. The resulting reactions were sealed and frozen for later mass spec analysis. The relative SIRT1 activity was then determined by measuring the amount of O-acetyl-ADP-ribose (OAADPR) formed (or, alternatively, the amount of deacetylated Trp peptide generated) by the NAD-dependent sirtuin deacetylation reaction in the presence of varying concentrations of the test compound versus control reactions lacking the test compound. The degree to which the test agent activated deacetylation by SIRT1 was expressed as EC1.5 (i.e., the concentration of compound required to increase SIRT1 activity by 50% over the control lacking test compound), and Percent Maximum Activation (i.e., the maximum activity relative to control (100%) obtained for the test compound).
A control for inhibition of sirtuin activity was conducted by adding 1 μL of 500 mM nicotinamide as a negative control at the start of the reaction (e.g., permits determination of maximum sirtuin inhibition). A control for activation of sirtuin activity was conducted using 10 nM of sirtuin protein, with 1 μL of DMSO in place of compound, to determine the amount of deacetylation of the substrate at a given time point within the linear range of the assay. This time point was the same as that used for test compounds and, within the linear range, the endpoint represents a change in velocity.
For the above assay, SIRT1 protein was expressed and purified as follows. The SirT1 gene was cloned into a T7-promoter containing vector and transformed into BL21(DE3). The protein was expressed by induction with 1 mM IPTG as an N-terminal His-tag fusion protein at 18° C. overnight and harvested at 30,000×g. Cells were lysed with lysozyme in lysis buffer (50 mM Tris-HCl, 2 mM Tris[2-carboxyethyl] phosphine (TCEP), 10 μM ZnCl2, 200 mM NaCl) and further treated with sonication for 10 min for complete lysis. The protein was purified over a Ni-NTA column (Amersham) and fractions containing pure protein were pooled, concentrated and run over a sizing column (Sephadex S200 26/60 global). The peak containing soluble protein was collected and run on an Ion-exchange column (MonoQ). Gradient elution (200 mM-500 mM NaCl) yielded pure protein. This protein was concentrated and dialyzed against dialysis buffer (20 mM Tris-HCl, 2 mM TCEP) overnight. The protein was aliquoted and frozen at −80° C. until further use.
Sirtuin-modulating compounds of Formula (I) that activated SIRT1 were identified using the assay described above and are shown below in Table 1. […]

Row | Structure (SMILES) | Emax | TRP Activity (EC1.5, concentration of compound required to increase SIRT1 activity by 50% over control) | TRP MAX RESP (percent maximum fold activation relative to control = 100%)
1 | Cc1cc(-c2ccc3c(n2)N(C(=O)Nc2cccnc2)[C@H]2CCCN3C2)ccn1 [Example 32, (9S)-2-(2-methylpyridin-4-yl)-N-(pyridin-3-yl)-8,9-dihydro-6H-5,9-methanopyrido[2,3-b][1,4]diazocine-10(7H)-carboxamide] | ≥ 150% | A (EC1.5<1 μM) | 
2 | Cc1ccc2c(NC(=O)N3c4nc(C(=O)N[C@H](C)C(F)(F)F)cc(C)c4N4CCC[C@H]3C4)n[nH]c2n1 [Example 47, (9S)-4-methyl-N10-(6-methyl-1H-pyrazolo[3,4-b]pyridin-3-yl)-N2-((R)-1,1,1-trifluoropropan-2-yl)-8,9-dihydro-6H-5,9-methanopyrido[2,3-b][1,4]diazocine-2,10(7H)-dicarboxamide] | ≥ 150% | A (EC1.5<1 μM) | 
3 | Cc1ccc2c(NC(=O)N3c4nc(C(=O)NC5CC5(F)F)ccc4N4CCC[C@H]3C4)n[nH]c2n1 (single isomer, unassigned) [Example 48] | ≥ 150% | A (EC1.5<1 μM) | 
4 | O=C(Nc1cnccn1)N1c2nc(N3CCC[C@H](C(F)(F)F)C3)ccc2N2CCC[C@H]1C2 (single isomer, unassigned) [Example 27] | ≥ 150% | A (EC1.5<1 μM) | 
5 | O=C(Nc1ncccn1)N1c2nc(N3CCCC(C(F)(F)F)C3)ccc2N2CCC[C@H]1C2 (single isomer, unassigned) [Example 18] | ≥ 150% | A (EC1.5<1 μM) | 
6 | Cc1ccc2c(NC(=O)N3c4nc(C(=O)NC(CO)C(F)(F)F)ccc4N4CCC[C@H]3C4)n[nH]c2n1 (single isomer, unassigned) [Example 46] |  | A (EC1.5<1 μM) | A (Fold activation≥150%)

Other lines, results leading:

Row | Emax | TRP Activity (EC1.5, concentration of compound required to increase SIRT1 activity by 50% over control) | TRP MAX RESP (percent maximum fold activation relative to control = 100%) | Structure (SMILES)
7 | ≥ 150% | A (EC1.5<1 μM) |  | COc1cncc(NC(=O)N2c3nc(-c4ccnc(C)c4)ccc3N3CCC[C@H]2C3)n1 [Example 20, (9S)-N-(6-methoxypyrazin-2-yl)-2-(2-methylpyridin-4-yl)-8,9-dihydro-6H-5,9-methanopyrido[2,3-b][1,4]diazocine-10(7H)-carboxamide]
8 | ≥ 150% | A (EC1.5<1 μM) |  | O=C(Nc1ccncn1)N1c2nc(-c3ccnc(C(F)(F)F)c3)ccc2N2CCC[C@H]1C2 [Example 9, (9S)-N-(pyrimidin-4-yl)-2-(2-(trifluoromethyl)pyridin-4-yl)-8,9-dihydro-6H-5,9-methanopyrido[2,3-b][1,4]diazocine-10(7H)-carboxamide]
9 | ≥ 150% | A (EC1.5<1 μM) |  | O=C(Nc1ccnc(OC[C@H](O)CO)n1)N1c2nc(-c3cccc(C(F)(F)F)c3)c(Cl)cc2N2CCC[C@H]1C2 [Example 88, (9S)-3-chloro-N-(2-((R)-2,3-dihydroxypropoxy)pyrimidin-4-yl)-2-(3-(trifluoromethyl)phenyl)-8,9-dihydro-6H-5,9-methanopyrido[2,3-b][1,4]diazocine-10(7H)-carboxamide]
10 | ≥ 150% | A (EC1.5<1 μM) |  | O=C(Nc1ncc(OC[C@@H](O)CO)cn1)N1c2nc(-c3cccc(C(F)(F)F)c3)c(Cl)cc2N2CCC[C@H]1C2 [Example 92, (9S)-3-chloro-N-(5-((S)-2,3-dihydroxypropoxy)pyrimidin-2-yl)-2-(3-(trifluoromethyl)phenyl)-8,9-dihydro-6H-5,9-methanopyrido[2,3-b][1,4]diazocine-10(7H)-carboxamide]
11 | ≥ 150% | A (EC1.5<1 μM) |  | O=C(NC1CC1(F)F)c1ccc2c(n1)N(C(=O)Nc1cc(OC[C@H](O)CO)ccn1)[C@H]1CCCN2C1 (single isomer, unassigned) [Example 50]
12 | ≥ 150% | A (EC1.5<1 μM) |  | O=C(NCC(F)(F)F)c1nc2c(cc1Cl)N1CCC[C@@H](C1)N2C(=O)Nc1ccccn1 [Example 38, (9S)-3-chloro-N10-(pyridin-2-yl)-N2-(2,2,2-trifluoroethyl)-8,9-dihydro-6H-5,9-methanopyrido[2,3-b][1,4]diazocine-2,10(7H)-dicarboxamide]
13 | ≥ 150% | A (EC1.5<1 μM) |  | O=C(Nc1ccnc(OC[C@@H](O)CO)n1)N1c2nc(-c3cccc(C(F)(F)F)c3)c(Cl)cc2N2CCC[C@H]1C2 [Example 81, (9S)-3-chloro-N-(2-((S)-2,3-dihydroxypropoxy)pyrimidin-4-yl)-2-(3-(trifluoromethyl)phenyl)-8,9-dihydro-6H-5,9-methanopyrido[2,3-b][1,4]diazocine-10(7H)-carboxamide]
14 | ≥ 150% | A (EC1.5<1 μM) |  | O=C(Nc1ccccn1)N1c2nc(-c3ccnc(C(F)(F)F)c3)ccc2N2CCC[C@H]1C2 [Example 7, (9S)-N-(pyridin-2-yl)-2-(2-(trifluoromethyl)pyridin-4-yl)-8,9-dihydro-6H-5,9-methanopyrido[2,3-b][1,4]diazocine-10(7H)-carboxamide]
15 | ≥ 150% | A (EC1.5<1 μM) |  | O=C(Nc1cc(OC[C@H](O)CO)ccn1)N1c2nc(-c3cccc(C(F)(F)F)c3)c(Cl)cc2N2CCC[C@H]1C2 [Example 82, (9S)-3-chloro-N-(4-((R)-2,3-dihydroxypropoxy)pyridin-2-yl)-2-(3-(trifluoromethyl)phenyl)-8,9-dihydro-6H-5,9-methanopyrido[2,3-b][1,4]diazocine-10(7H)-carboxamide]
